Experimental findings from BindingDB's records for doi:10.1016/j.ejmech.2017.08.029 (Emory University, 2017) are described below.

A short description of the assay: Inhibition of human GLUT1 in human KMS11 cells over-expressing human GLUT1 assessed as as inhibition of receptor-mediated cell proliferation after 72 hrs by CellTiter-Glo assay. A general note: In ATP-based viability assays light output follows the ATP content of the culture.
`COc1ccc(C(=O)N(Cc2ccncc2)Cc2cccc(OCc3ccc(F)cc3)c2)cc1`: the IC50 (commonly the concentration at which inhibition is half-maximal) came out at 28.6 µM.

`COc1ccc(C(=O)N(Cc2ccncc2)Cc2cccc(OCc3cccc(OC)c3)c2)cc1`: the IC50 worked out at 28.5 µM.

In the case of `COc1ccc(C(=O)N(Cc2ccncc2)Cc2cccc(OCC(=O)c3cccc(Br)c3)c2)cc1`, the IC50 amounted to 21.4 µM.

Take `COc1ccc(CC(=O)N(Cc2ccncc2)Cc2cccc(OCCc3ccc(F)cc3)c2)cc1`: the IC50 was 21.8 µM.

With `COc1ccc(C(=O)N(Cc2ccncc2)Cc2cccc(OCCc3ccc(Br)cc3)c2)cc1`, the IC50 was 6.5 µM.

`COc1ccc(C(=O)N(Cc2ccncc2)Cc2cccc(OCCc3cccc(C(F)(F)F)c3)c2)cc1`: the IC50 was determined as 15.1 µM.

On to `COc1ccc(C(=O)N(Cc2ccncc2)Cc2cccc(OCC3CCOCC3)c2)cc1`, for which the IC50 amounted to 25.8 µM.

Consider `COc1ccc(C(=O)N(Cc2ccncc2)Cc2cccc(OCCc3ccccc3)c2)cc1`, for which the concentration for half-maximal inhibition (IC50) worked out at 21 µM.

In the case of `COc1ccc(C(=O)N(Cc2ccncc2)Cc2cccc(OCC3CCCCC3)c2)cc1`, the IC50 was found to be 16 µM.

For the compound `COc1ccc(C(=O)N(Cc2ccncc2)Cc2cccc(OCc3ccc([N+](=O)[O-])cc3)c2)cc1`, the IC50 turned out to be 11.7 µM.

In the case of `COc1ccc(C(=O)N(Cc2ccncc2)Cc2cccc(OCC(=O)c3ccc(Cl)cc3)c2)cc1`, the IC50 was 16.9 µM.

Take `O=C(c1ccc(Cl)cc1)N(Cc1ccncc1)Cc1cccc(OCCc2ccc(F)cc2)c1`: the IC50 was determined as 15.6 µM.

Turning to `COc1ccc(C(=O)N(Cc2ccncc2)Cc2cccc(OCCc3ccc(C)cc3)c2)cc1`, the IC50 turned out to be 12.7 µM.

For `COc1ccc(C(=O)N(Cc2ccncc2)Cc2cccc(OCc3ccc(C(F)(F)F)cc3)c2)cc1`, the IC50 worked out at 16.8 µM.
